Measured values reported in patent US20220142161A1, “METHOD OF IMPROVING THE GROWTH AND/OR THE YIELD OF PLANTS GROWN ON AGRICULTURALLY OR HORTICULTURALLY UTILIZED SUBSTRATES BY APPLYING A NITRICATION INHIBITOR ADDED TO THE IRRIGATION SYSTEM” (BASF SE, priority 2019, published 2022).

How the values were obtained:
[1] = system: nitrification in sandy loam soil (soil microbial biomass); experiment: Soil incubation with simulated drip irrigation: NH4 recovery and nitrification inhibition; conditions: for % NH4 recovery of applied NH4: 20° C., ammonium sulfate; for % nitrification inhibition: calculated according to equation 1
Description: (§1) In the examples a standardized sandy loam soil with coarse and very light texture was used.
For each test, three 500 ml plastic bottles were filled with 100 g of air dried soil each. Soil was moistened with deionized water to 50% of its water holding capacity. Then, the soil was incubated for two weeks at 20° C. to activate the microbial biomass. Ammonium sulfate was dissolved in deionized water in an amount corresponding to a nitrogen concentration of 10 g/L and supplemented by the desired amount of nitrogen inhibitor in an amount given in table 1. To each bottle 1 ml of the test solution was added by dripping the test solution with a pipette to the soil to simulate drop irrigation. Bottles were loosely capped to avoid contamination by dirt but to allow air exchange. The bottles were incubated at 20° C. for 0 to 42 days.
For determining the nitrogen content in the soil after incubation, to each bottle 300 mL of a 1% by weight solution of potassium sulfate in deionized water was added and the bottle was shaken for 2 h in a horizontal shaker at 150 rpm. Then the whole content of the bottle was filtered through a paper filter (MN 807 of Macherey-Nagel) and the filtrate was analyzed photometrically at 550 nm with respect to ammonium and nitrate by means of an auto analyzer AA11 of Merck.
Inhibition of nitrification was calculated by the following equation 1 (Bohland equation, DD 123771):
N (NO3) 1=Concentration of nitrogen contributed by NO3 without NI at the end of incubation
N (NO3) […]=Concentration of nitrogen contributed by NO3 with NI at the end of incubation
N (NO3) […]=Concentration of nitrogen contributed by NO3 at the beginning of incubation
The Examples were carried out in two separate series 1 and 2. All results are averages of 3 replications.

[2] = system: nitrification in sandy loam soil; experiment: Leaching experiment in soil column with simulated drip irrigation; conditions: AS 90 mg N; NI/N (NH4) 0.8%; 9 days at 20° C., then about 43 mm precipitation; lower value = better inhibition
Description: as §1
100 g of air dried soil was filled in a 150 mL free draining column made of glass. Soil was moistened with deionized water to 50% of its water holding capacity. Then, the filled column was incubated for 24 h at 20° C. A solution of ammonium sulfate and optionally the nitrogen inhibitor in deionized water was deposited on the soil by means of a pipette to simulate drip irrigation. The amount of ammonium sulfate corresponds to 90 mg of nitrogen (N). The columns were then incubated for 9 days at 20° C. Then, deionized water was dripped to the soil corresponding to a precipitation of about 43 mm. Thereafter, the water was removed from the soil by applying a negative pressure until the moisture in the soil was 50% of its water holding capacity. The removed water (percolate) was collected and analyzed with regard to the total quantity of inorganic nitrogen (NH4 and NO3) as described for example 1. Since NH4 is more strongly bound to the soil compared to NO3 a lower nitrogen value indicates a better inhibition of nitrification.

[3] = second series, DAT7, NI/N (NH4) 0.8%
[4] = second series, DAT14, NI/N (NH4) 0.8%
[5] = second series, DAT28, NI/N (NH4) 0.8%
[6] = second series, DAT42, NI/N (NH4) 0.8%
[7] = first series, DAT14, NI/N (NH4) 0.8%
[8] = first series, DAT28, NI/N (NH4) 0.8%
[9] = first series, DAT42, NI/N (NH4) 0.8%
[10] = second series, DAT7, NI/N (NH4) 0.4%
[11] = second series, DAT14, NI/N (NH4) 0.4%
[12] = second series, DAT28, NI/N (NH4) 0.4%
[13] = second series, DAT42, NI/N (NH4) 0.4%
[14] = first series, DAT14, NI/N (NH4) 10%
[15] = first series, DAT28, NI/N (NH4) 10%
[16] = first series, DAT42, NI/N (NH4) 10%

Molecule: Cc1c[nH]nc1C.O=P(O)(O)O [DMPP, 3,4-dimethyl pyrazole phosphate]
- % NH4 recovery of applied NH4 [1, 3]: 75%
- % nitrification inhibition [1, 3]: 70%
- % NH4 recovery of applied NH4 [1, 4]: 71%
- % nitrification inhibition [1, 4]: 76%
- % NH4 recovery of applied NH4 [1, 5]: 64%
- % nitrification inhibition [1, 5]: 66%
- % NH4 recovery of applied NH4 [1, 6]: 66%
- % nitrification inhibition [1, 6]: 61%
- Total N: total quantity of inorganic nitrogen (NH4 and NO3) in percolate [2]: 6.3 mg

Molecule: Clc1cccc(C(Cl)(Cl)Cl)n1 [Nitrapyrin, 2-chloro-6-(trichloromethyl)pyridine]
- % NH4 recovery of applied NH4 [1, 7]: 31%
- % nitrification inhibition [1, 7]: 33%
- % NH4 recovery of applied NH4 [1, 8]: 3%
- % nitrification inhibition [1, 8]: 4%
- % NH4 recovery of applied NH4 [1, 9]: 0%
- % nitrification inhibition [1, 9]: −2%
- Total N: total quantity of inorganic nitrogen (NH4 and NO3) in percolate [2]: 7.1 mg

Molecule: 2-(3,4-dimethyl-1H-pyrazol-1-yl)succinic acid and 2-(4,5-dimethyl-1H-pyrazol-1-yl)succinic acid [DMPSA]
- inhibition of nitrification in drip irrigation compared to DCD and Nitrapyrin ([1]; conclusion from tables 1 and 2): longer and stronger inhibition of nitrification
- % NH4 recovery of applied NH4 [1, 7]: 82%
- % nitrification inhibition [1, 7]: 74%
- % NH4 recovery of applied NH4 [1, 8]: 48%
- % nitrification inhibition [1, 8]: 59%
- % NH4 recovery of applied NH4 [1, 9]: 27%
- % nitrification inhibition [1, 9]: 34%
- effectiveness relative to DMPP ([1]; half amount of DMPSA gives comparable nitrification inhibition): almost twice effective as DMPP
- % NH4 recovery of applied NH4 [1, 10]: 82%
- % nitrification inhibition [1, 10]: 76%
- % NH4 recovery of applied NH4 [1, 11]: 73%
- % nitrification inhibition [1, 11]: 75%
- % NH4 recovery of applied NH4 [1, 12]: 61%
- % nitrification inhibition [1, 12]: 66%
- % NH4 recovery of applied NH4 [1, 13]: 63%
- % nitrification inhibition [1, 13]: 56%
- Total N: total quantity of inorganic nitrogen (NH4 and NO3) in percolate [2]: 6.0 mg

Molecule: N#CN=C(N)N [DCD, dicyandiamide]
- % NH4 recovery of applied NH4 [1, 14]: 63%
- % nitrification inhibition [1, 14]: 59%
- % NH4 recovery of applied NH4 [1, 15]: 13%
- % nitrification inhibition [1, 15]: 15%
- % NH4 recovery of applied NH4 [1, 16]: 0%
- % nitrification inhibition [1, 16]: 3%
